# Source: PMC8362126, “Proteolysis Targeting Chimera (PROTAC) for Macrophage Migration Inhibitory Factor (MIF) Has Anti‐Proliferative Activity in Lung Cancer Cells” (Angewandte Chemie (International Ed. in English), 2021)
# Entries after “also recorded” stand apart in the source; their conditions may differ.
# Tests used:
# [1] = test system: A549 cells; test: CyQUANT cell proliferation assay; format: cell-based, human; details: concentrations up to 20 μM, 72 hours
# Description: S8. Cell growth, cell cycle and pERK signaling study
# Cell proliferation was measured with the CyQUANT® Direct Cell Proliferation Assay Kit (Thermo Fisher, #C35011). A549 cells were cultured in 96-well plates at a density of 1,000 cells/well and treated with different concentrations of MIF PROTAC (0.02-20 μM) for 72 h.
# Cells were incubated with detection reagent (100 μL) for 60 min at 37 °C with 5% CO2. The fluorescence of each well was read at 485/535nm by plate reader (BioTek).
# Figure S8. Cells were seeded with a density of 1000 cells per well in a 96-well plate. After overnight incubation, the cells were treated with various concentration of MD13 for 72 hours.
# The resulting cells were quantified by CyQUANT® cell proliferation assays and compared with the vehicle (DMSO) control (n=3). […]
# (also on this page, place not known: (0.02 -20 CO 2. (20 µM) 4 (20 µM) µM 20 µM 0.01 µM 0.08 µM 0.74 µM 6.7 µM 20 µM 0 50 100 Cell (%) H441 n.s. * * ** *** * n.s. MD15 96 -well MD13 proliferation control 96 -well round - 2 3) […]
# (1 picture or pasted object on this page, not shown here)
# [2] = test system: A549 cell spheroids; test: 3D tumor spheroid assay; format: cell-based, human; details: 5 μM, 12 days
# Description: A 3D spheroid model was employed to investigate the effect of longer term MD13 treatment in a more complex model for tumor growth. The 3D spheroid model was established using A549 cancer cells by a method adapted from Feng et al.[48] The spheroids were grown over a 12‐day period in absence or presence of PROTAC MD13. Each spheroid was prepared from about 1000 A549 cells. After three‐day incubation, these spheroids were treated with 1, 2, or 5 μM of MD13 with 72 hours intervals over 12 days. Spheroid growth was monitored by measuring the diameter and this was compared to day 0 of the treatment. The tumor spheroids in MD13 treated groups were significant smaller compared to the control group (Figure 5 B and Figure S9). With continuous exposure to 1, 2, or 5 μM of MD13 for 12 days, the growth of the spheroid tumor volume was inhibited by 42 %, 53 %, and 81 % compared with control group, respectively. […]
# Tumor spheroid assay. A549 cells (1000 cells/well) were seeded onto a 96-well round-bottomed ultra low attachment plate (Corning). After 2 days of incubation without disturbance, the spheroid was treated with indicated compound every 3 days. […]
# (1 picture or pasted object on this page, not shown here) […]
# inverted microscope (Nikon Eclipse Ti) connected with a NIS-elements software. The data were analyzed and plotted with Graphpad Prism8. […]
# cells were seeded in an ultralow attachment 96-well round-bottomed plate (1000 cells/well) to generate tumor spheroids (a single spheroid per well). After initiation, the spheroids were treated with different compounds at the indicated concentrations every three days. DMSO was used as vehicle control. The day of the first treatment was indicated as day 0. (A) Representative images were obtained at the indicated intervals using an inverted microscope. Scale bar: 500 μm. (B) Analysis was carried out using NIS-Elements AR 3.1 software, and growth curves were obtained relative to the untreated spheroids (day 0) and plotted with GraphPad Prism 8. Values are shown as means ± SD (n = 3 spheroids/time point, **p < 0.01 vs control). […]
# [3] = test system: ERK phosphorylation; test: ERK phosphorylation by western blot; format: cell-based, human; details: A549, 2 μM; 3 and 4 for 24 h, MD15 for 6, 24 or 48 h
# Description: The effect of treatment with MIF‐directed PROTAC MD13 on MIF‐related signaling pathways was investigated by assessment of ERK phosphorylation using western blot analysis. […] Thus treatment with the MIF‐directed PROTAC MD13 inhibits ERK phosphorylation as a MIF‐related signaling event. […]
# ERK signaling pathway study. A549 cells (2x10^5 cells per well) were seeded into each well of a 6-well plate with 2 mL RPMI-1640 medium containing 10% FBS (Costar Europe, Badhoevedorp, The Netherlands), and 1% penicillin/streptomycin solution (Corning). After overnight culturing, the cells were treated with MD13, MD15, or DMSO for the time indicated.
# After that, cells were lysed by RIPA buffer containing 1× PhosSTOP and protease inhibitor (PI) cocktail (Roche, Mannheim, Germany). The BCA Protein Assay Kit (Pierce, Rockford IL, USA) was used to determine the protein concentration. 30 µg protein was separated by a pre-cast 10% NuPAGE Bis-Tris gel (Invitrogen, USA) and then transferred to a polyvinylidene difluoride (PVDF) membrane. After blocking with 5% of skimmed milk for 1 hour at room temperature and incubation with the appropriate primary antibody (pERK, #9101, Cell Signaling, 1:1000; GAPDH, #97166, Cell Signaling, 1:10000) overnight at 4 °C, the membrane was treated with an HRP-conjugated secondary goat anti-rabbit antibody (#P0448, Dako, 1:2000) or rabbit anti-mouse antibody (#P0260, Dako, 1:2000) at room temperature for 1 hour.
# The protein bands were visualized with enhanced chemiluminescence (ECL) solution (GE Healthcare). The figures were quantified with imageJ software based on grayscale. […]
# [4] = molecular target: T1, MIF (Homo sapiens, UniProt P14174); test: MIF degradation in A549 cells, western-blot; format: cell-based; set-up: endogenous in cells; host or cells: A549 (ATCC CCL-185); details: A549 cells
# T1 sequence (P14174 2-115 limits assumed): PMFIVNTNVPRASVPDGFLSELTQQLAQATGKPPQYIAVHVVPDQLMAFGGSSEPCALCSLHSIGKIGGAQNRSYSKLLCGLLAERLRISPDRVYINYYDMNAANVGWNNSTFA
# Description: The concentration dependence of PROTAC MD13‐mediated induction of MIF degradation in A549 cells was investigated using western‐blot. […] The MIF levels were normalized to the vehicle treated control and plotted to the respective MD13 concentrations. This provided a DC50 of around 100 nM and a maximal degradation of around 90–95 % at concentrations higher than 1 μM (Figure 3 B). The DC50 of MD13 measured by ELISA assay was about 200 nM (Figure 3 C), which is in line with the result from western‐blot. […]
# Cell lysates were prepared using the protocol described above. About 10−40 μg of total protein was mixed with the 4× Laemmli Loading Dye (250 mM Tris, pH 6.8, 40% glycerol, 5% SDS, 0.005% bromophenol blue, 4% β-mercaptoethanol) and heated at 95−100 °C for 5 min and loaded onto a 12% Bis-Tris gel (Bio-Rad Laboratories, #4561084) and proteins were separated at 120V. Afterwards, proteins were transferred to polyvinylidene fluoride (PVDF) membranes, subsequently non-specific antibody binding was blocked with 5% nonfat dry milk (BIO-RAD, #1706404) in TBST buffer and incubated overnight at 4 °C with one of the following primary antibodies: anti-MIF (1:1000, ThermoFisher, #PA5-27343 ) or anti-β-actin (1:10000 Cell Signalling, #8457). The membranes were further incubated with a goat anti-rabbit HRP-conjugated secondary antibody (1:2000, DAKO, p0448) for 2 h at room temperature. Proteins were visualized with an ECLTM Prime Western Blotting System (GE Healthcare #RPN2232). The immunoblot was generated by ChemiDoc MP Imaging Systems (Bio-Rad) and analyzed by the ImageJ software. […]
# As a control, the same experiment was repeated and analyzed by a western-blot assay (Figure 3B). The potency estimated from the Western blot assay was 1 µM (Figure 3C), which is consistent with the result from the ELISA assay. The “Hook effect” […]
compound,measurement,setting,value
"Nc1cccc2c1C(=O)N(C1CCC(=O)NC1=O)C2=O (centres unmarked) [compound 4, pomalidomide]",effect on cell proliferation,[1],no effect; also recorded: no or little effect
same,influence on spheroid tumor growth,[2],no significant influence
same,effect on pERK levels,[3],no significant decrease
same,rescue of MD9 mediated MIF degradation,"[4]; 2 hours pretreatment (1 100 µM, 3 50 µM, 4 50 µM, Bortezomib), then 10 µM MD9 12 h",partial to complete rescue; also recorded: rescued
same,rescue of MD13 mediated MIF degradation,"[4]; co-treatment (Bortezomib) or 1 hour pretreatment (3, 4) with MD13",rescued MIF from degradation; also recorded: able to abolish the MD13 triggered degradation
